The text below walks through data of ChEMBL document CHEMBL1201862, “PubChem BioAssay data set” (2004).

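Five concentrations, 48 hours, 96-well plates. GI50: concentration for 50% inhibition of growth.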 The source made the active and inactive calls. Rule as the data show it: active = GI50 up to about 1.1 µM and inactive = higher. Bounds are passed on as bounds.

Among the test systems are SK-MEL-28; HT-29; IGROV-1; A549; MDA-MB-231; SK-MEL-5; SW-620; SNB-75; OVCAR-5; HOP-62; SNB-19; Malme-3M; T47D; CAKI-1; RXF 393; SF-268; HCC 2998; EKVX; M14; SR.
What all share (experiment): growth of human tumour cells (NCI), 48 h

Regarding `Cc1ccc(C(=O)Nc2ccc(CP(=O)(O)O)cc2CP(=O)(O)O)cc1NC(=O)Nc1cc(C(=O)Nc2ccc(CP(=O)(O)O)cc2CP(=O)(O)O)ccc1C`, the GI50 in the assay on SK-MEL-28, in the assay on HT-29, with IGROV-1, in the assay on A549, in the assay with MDA-MB-231 and in the assay with SK-MEL-5 was > 100 µM (inactive) in each case. The GI50 in the assay on SW-620, in the assay with SNB-75, in the assay on OVCAR-5, in the assay with HOP-62, in the assay on SNB-19 and in the assay on Malme-3M was > 100 µM (inactive) in each case. Besides, the GI50 in the assay on T47D, in the assay with CAKI-1, in the assay on RXF 393, with SF-268, in the assay with HCC 2998 and with EKVX was > 100 µM (inactive) in each case. In addition, in the assay on M14, the GI50 was > 100 µM (inactive).
In the case of `C=CCC1=CC2(OC)C(=O)C(OC)(OC)C1C1C(OC)(OC)C(=O)C(OC)=CC12CC=C` (configuration not stated), the GI50 in the assay on SK-MEL-28, in the assay on HT-29, in the assay on IGROV-1, in the assay on A549, with MDA-MB-231 and with SK-MEL-5 was > 100 µM (inactive) in each case. For the same molecule, the GI50 in the assay with SW-620, in the assay with SNB-75, in the assay with OVCAR-5, with HOP-62, in the assay with SNB-19 and in the assay with Malme-3M was > 100 µM (inactive) each time. Further, the GI50 with T47D, in the assay with CAKI-1, in the assay on RXF 393, in the assay with SF-268, with HCC 2998 and in the assay with EKVX was > 100 µM (inactive) in each case. The GI50 with M14 was > 100 µM (inactive).
For the molecule `O=NC1C(Cl)C2CC1C1C(Br)C(Br)CC21` (configuration not stated), the GI50 was > 100 µM (inactive) with SK-MEL-28; > 100 µM (inactive) in the assay with HT-29; > 100 µM (inactive) in the assay on IGROV-1; > 100 µM (inactive) with A549; > 100 µM (inactive) in the assay with MDA-MB-231; 48.9 µM (inactive) in the assay on SR. The GI50 with SK-MEL-5, in the assay with SW-620, with SNB-75, with OVCAR-5, with HOP-62 and with SNB-19 was > 100 µM (inactive) each time. Also, the GI50 in the assay on Malme-3M, in the assay on T47D, with CAKI-1, in the assay on RXF 393, with SF-268 and in the assay with EKVX was > 100 µM (inactive) each time. Also, the GI50 in the assay on M14 is > 100 µM (inactive).
With `CO/N=C(/C)c1cccc(Nc2nc3ccccc3c3[nH]c4ccccc4c23)c1`, the GI50 in the assay on HT-29 was 2.49 µM (inactive); in the assay with IGROV-1 it was 13.5 µM (inactive); in the assay on A549, 8.75 µM (inactive); in the assay on MDA-MB-231, 12.1 µM (inactive); in the assay with SR, 5.86 µM (inactive); in the assay with SK-MEL-5 it was 5.62 µM (inactive). Also, the GI50 is 10.1 µM (inactive) in the assay on SW-620; 0.302 µM (active) in the assay on SNB-75; 6.82 µM (inactive) in the assay with OVCAR-5; 9.66 µM (inactive) in the assay with HOP-62; 12.9 µM (inactive) in the assay with SNB-19; 1.84 µM (inactive) in the assay on T47D. The GI50 with CAKI-1 was 10.5 µM (inactive); with SF-268, 12.3 µM (inactive); with M14, 7.69 µM (inactive).
As for `CC(=O)NNC(=S)N/C=C1/C(=O)C=C(C)OC1=O`, the GI50 in the assay with SK-MEL-28, in the assay with HT-29, with IGROV-1, in the assay on A549, with MDA-MB-231 and with SK-MEL-5 was > 100 µM (inactive) in each case. Moreover, the GI50 in the assay with SW-620, in the assay on SNB-75, with OVCAR-5, in the assay with HOP-62, in the assay on SNB-19 and in the assay on T47D was > 100 µM (inactive) throughout. Also, the GI50 in the assay on CAKI-1, in the assay on HCC 2998, in the assay on EKVX and in the assay on M14 was > 100 µM (inactive) throughout.
Consider `CC/C(Cl)=N\OC(=O)Nc1ccc(OC)cc1`, for which the GI50 is 6.71 µM (inactive) with SK-MEL-28; 6.05 µM (inactive) in the assay with HT-29; 6.71 µM (inactive) in the assay with IGROV-1; 17.2 µM (inactive) in the assay with A549; 7.06 µM (inactive) in the assay with MDA-MB-231; 6.18 µM (inactive) with SK-MEL-5. Also, the GI50 in the assay with SW-620 is 2.7 µM (inactive); with SNB-75, 6.27 µM (inactive); in the assay with OVCAR-5, 6.11 µM (inactive); with HOP-62 it was 16.5 µM (inactive); in the assay with SNB-19 it was 24 µM (inactive); with Malme-3M it was 1.84 µM (inactive). Further, the GI50 in the assay with T47D is 5.89 µM (inactive); in the assay on CAKI-1 it was 1.65 µM (inactive); in the assay on RXF 393, 2.15 µM (inactive); with SF-268, 14.3 µM (inactive); in the assay with HCC 2998 it was 5.58 µM (inactive); in the assay with EKVX, 5.9 µM (inactive). In addition, the GI50 in the assay with M14 is 5.19 µM (inactive).
On to `CCOc1ccc(Nc2nc3c(s2)C(=O)c2ccccc2C3=O)cc1`, for which the GI50 in the assay with SK-MEL-28 is 18.9 µM (inactive); in the assay with IGROV-1 it was 11.9 µM (inactive); in the assay on A549 it was 19.5 µM (inactive); in the assay on MDA-MB-231, 2.33 µM (inactive); with SK-MEL-5, 2.27 µM (inactive); with SW-620, 3.21 µM (inactive). The GI50 in the assay on SNB-75 is 11.1 µM (inactive); in the assay with OVCAR-5, 21.6 µM (inactive); in the assay with HOP-62 it was 17.7 µM (inactive); in the assay with SNB-19 it was 15.7 µM (inactive); with Malme-3M it was 2.77 µM (inactive); in the assay with T47D, 13.6 µM (inactive). Also, the GI50 in the assay on CAKI-1 is 8.41 µM (inactive); in the assay with RXF 393 it was 12.8 µM (inactive); with SF-268, 3.63 µM (inactive); in the assay on HCC 2998, 17.1 µM (inactive); with EKVX it was 20 µM (inactive); in the assay on M14, 12.2 µM (inactive).
As for `CN(C)c1ccc(/C=C2\C[C@H]3[C@@H]4CC=C5C[C@@H](O)CC[C@]5(C)[C@H]4CC[C@]3(C)C2=O)cc1`, the GI50 with SK-MEL-28 was 16.2 µM (inactive); in the assay on HT-29, 16.3 µM (inactive); with IGROV-1, 18 µM (inactive); with A549 it was 19.9 µM (inactive); with MDA-MB-231 it was 18 µM (inactive); in the assay with SR it was 29.1 µM (inactive). For the same molecule, the GI50 in the assay on SK-MEL-5 is 50.7 µM (inactive); in the assay with SW-620, 30.2 µM (inactive); with SNB-75 it was 23.2 µM (inactive); with OVCAR-5, 17.9 µM (inactive); in the assay with HOP-62, 13.2 µM (inactive); with SNB-19 it was 17.1 µM (inactive). Moreover, the GI50 with Malme-3M is 19.5 µM (inactive); in the assay on T47D it was 20.3 µM (inactive); with RXF 393 it was 19.7 µM (inactive); in the assay with SF-268, 13 µM (inactive); in the assay on EKVX it was 23.6 µM (inactive); with M14 it was 16.6 µM (inactive).
For `O=S(=O)(O)c1ccccc1/N=N\c1ccc(/N=N/c2c(O)ccc3ccccc23)c(S(=O)(=O)O)c1`, the GI50 in the assay on SK-MEL-28, with HT-29, in the assay with IGROV-1, in the assay on A549, in the assay with MDA-MB-231 and with SK-MEL-5 was > 100 µM (inactive) throughout. For the same molecule, the GI50 in the assay on SW-620 was > 100 µM (inactive); in the assay on SNB-75, > 100 µM (inactive); in the assay on OVCAR-5 it was > 100 µM (inactive); with HOP-62, > 100 µM (inactive); in the assay on SNB-19, > 100 µM (inactive); in the assay with Malme-3M, 19.4 µM (inactive). In addition, the GI50 in the assay on T47D, in the assay on CAKI-1, in the assay with RXF 393, with SF-268, in the assay on EKVX and in the assay with M14 was > 100 µM (inactive) each time.
`O=C(NCc1cccs1)OC1CC2CCC1C2` (configuration not stated): the GI50 in the assay with SK-MEL-28, in the assay on HT-29, in the assay on IGROV-1, in the assay on A549, with MDA-MB-231 and in the assay with SR was > 100 µM (inactive) throughout. Moreover, the GI50 in the assay on SK-MEL-5, in the assay with SW-620, in the assay on OVCAR-5, in the assay on HOP-62, in the assay with SNB-19 and in the assay on Malme-3M was > 100 µM (inactive) each time. Further, the GI50 in the assay with T47D, with CAKI-1, in the assay on RXF 393, in the assay with SF-268, with EKVX and in the assay on M14 was > 100 µM (inactive) in each case.
On to `C[C@H]1[C@@H](c2ccccc2)O[B-](c2ccccc2)(c2ccccc2)[N+]1(C)C`, for which the GI50 with SK-MEL-28 is 48 µM (inactive); in the assay with HT-29, 10 µM (inactive); in the assay with IGROV-1, > 100 µM (inactive); with A549, 74.1 µM (inactive); in the assay with MDA-MB-231, 21.4 µM (inactive); with SR, 21.5 µM (inactive). The GI50 was 28.1 µM (inactive) in the assay with SK-MEL-5; 56.5 µM (inactive) in the assay with SW-620; > 100 µM (inactive) in the assay on OVCAR-5; > 100 µM (inactive) in the assay with HOP-62; > 100 µM (inactive) in the assay on SNB-19; 54.8 µM (inactive) in the assay on Malme-3M. Also, the GI50 was 34.7 µM (inactive) with T47D; 34.3 µM (inactive) with CAKI-1; 45.5 µM (inactive) in the assay with RXF 393; > 100 µM (inactive) in the assay with SF-268; > 100 µM (inactive) in the assay with EKVX; 27.7 µM (inactive) in the assay with M14.
